Test results reported in patent US20130237496A1, “ACTIVE INGREDIENT OBTAINED FROM CICHORIUM INTYBUS FOR ACTING ON THE BARRIER FUNCTION OF THE SKIN THAT IS SIMILAR TO THAT OF VITAMIN D” (SOCIETE INDUSTRIELLE LIMOUSINE D'APPLICATION BIOLOGIQUE, priority 2012, published 2013).

Legend:
Assay type in all cases: cell-based
Cytokeratin 1 (CK1) = experiment: Expression of RNAm by quantitative PCR in human keratinocytes of aged donors: cytokeratin 1; settings: 10^−7M, 48 hours
Text: (§1) The object of this study is to evaluate the effect of a Cichorium intybus root hydrolyzate comprising oligofructosans (Example 1) on its capacity to modulate the expression of the RNAm coding for epidermal differentiation proteins: • Kruppel-like factor 4 (KLF4): transcription factor involved in the terminal differentiation of keratinocytes, • Cytokeratin 1 (CK1): components of intermediate keratin filaments, • Involucrin: protein of the cornified envelope, • Cystatin E/M: Inhibitor of lysosomal protease cysteines that are involved in the differentiation of keratinocytes and desquamation. • Kallikrein 5 (KLK5 or SCTE): stratum corneum tryptic enzyme involved in desquamation.
(§2) The study was done by quantitative PCR on normal human keratinocytes obtained from aged donors (age of greater than 60 years), according to the operating procedure described below.
(§3) On D0, the human keratinocytes of aged donors are inoculated and incubated at 37° C.
(§4) The cells are then incubated for 48 hours at 37° C.
(§5) On D4, the cells are recovered, and the total RNA are extracted. The RNA are reverse-transcripts, and the complementary DNA that are obtained are analyzed by quantitative PCR (quantitative polymerase chain reaction).
(§6) The quantification of the incorporation of fluorescence is measured continuously using a thermal cycler, and the relative quantification is carried out using software.

Cystatin E/M = experiment: Expression of RNAm by quantitative PCR in human keratinocytes of aged donors: cystatin E/M; settings: 10^−7M, 48 hours
Text: as §1, §2, §3, §4, §5, §6

[1] = system: Kruppel-like factor 4 (KLF4); experiment: Expression of RNAm by quantitative PCR in human keratinocytes of aged donors: KLF4; settings: 10^−7M, 48 hours
Text: as §1, §2, §3, §4, §5, §6

Involucrin = experiment: Expression of RNAm by quantitative PCR in normal human keratinocytes: involucrin; settings: aged human keratinocytes; 10^−7M; 48 hours
Text: (§7) The study consists in comparing the effect of these different fractions on the expression of the involucrin and the KLK5 by quantitative PCR on normal human keratinocytes, with the result obtained for the active ingredient according to the invention at 1%. The test protocol is the one described in Item II. […]
(§8) The study was done by quantitative PCR on normal human keratinocytes obtained from aged donors (age of greater than 60 years), according to the operating procedure described below. […]
as §5, §6

filaggrin = experiment: Synthesis of filaggrin in reconstructed epidermis from aged human keratinocytes (immunohistological marking)
Text: (§9) The object of this study is to evaluate the capacity of a Cichorium intybus root hydrolyzate comprising oligofructosans to promote the construction of a stratified and functional epidermis starting from aged human keratinocytes obtained by successive replications. First, the young human keratinocytes (passage 1: […] Next, the reconstructed epidermis (RE) is obtained after the young or aged human keratinocytes are cultivated. On D12 and D19, the RE are recovered, fixed, dehydrated and included in paraffin. Sections (4 μm) are then made using a microtome. Next, an HE coloring, and then an immunohistological marking of the filaggrin, terminal differentiation marker, are carried out. The display is produced on a microscope coupled with an image analysis system: • The thickness of the epidermis (living cell layers) is measured on the histological sections after the HE coloring, • The synthesis of the filaggrin is proportional to the intensity of the fluorescence (green color) that is present in the reconstructed epidermis.

[2] = system: Kallikrein 5 (KLK5 or SCTE); experiment: Expression of RNAm by quantitative PCR in normal human keratinocytes: KLK5; settings: aged human keratinocytes; 10^−7M; 48 hours
Text: as §7, §8, §5, §6

[3] = system: Aged reconstructed epidermis; experiment: Thickness of reconstructed epidermis from aged human keratinocytes (HE coloring)
Text: as §9

How did the “RNAm Level/Control (%) Cytokeratin 1” value (Cytokeratin 1 (CK1)) turn out when `C=C1/C(=C\C=C2/CCC[C@]3(C)[C@@H]([C@H](C)CCCC(C)(C)O)CC[C@@H]23)C[C@@H](O)C[C@@H]1O` [Calcitriol, calcitriol] was run?
The value was 0%.

What about the “RNAm Level/Control (%) Cystatin E/M” value (Cystatin E/M) of the same molecule?
The value was “+65%”.

What about the “RNAm Level/Control (%) KLF4” value [1] of the same molecule?
The value was “+25%”.

What about the “RNAm Level/Control (%) Involucrin” value (Involucrin) of the same molecule?
The value was “+42%”.

And the “Synthesis of Filaggrin (×10^4 UA)” value (filaggrin; D12, 10^−8M)?
Its value is 116 ×10^4 UA.

And the “Synthesis of Filaggrin (×10^4 UA)” value (filaggrin; D19, 10^−8M)?
The value was 795 (FIG. 2c) ×10^4 UA.

And the “RNAm Level/Control (%) KLK5” value [2]?
The value was “+26%”.

What about the “Thickness of the Epidermis (μm)” value ([3]; D12, 10^−8M) of the same molecule?
Its value is 37.8 μm.

And the “Thickness of the Epidermis (μm)” value ([3]; D19, 10^−8M)?
Its value is 58.6 (FIG. 1c) μm.
